# Test results reported in US6989435B2, “Compounds and methods to inhibit or augment an inflammatory response” (Cambridge University Technical Services Ltd., priority 1997, dated 2006).
# Tests used:
# [1] = system: chemokine-induced migration of peripheral blood monocytes; assay: Chemokine-induced migration of freshly prepared peripheral blood monocytes, each of the four chemokines; format: cell-based, human; conditions: 100 μM; peripheral blood monocytes from 3 donors
# Procedure: (§1) Agents may also be screened in a chemotactic assay which employs human neutrophils, eosinophils, mast cells, basophils, platelets, lymphocytes or monocytes. For monocytes, 9 mls of fresh blood are transferred to a tube containing 1 ml of 3.8% sodium citrate, and left at room temperature for 15 minutes. Five mls of this anti-coagulated blood are carefully layered over 3.5 ml Polymorphprep® (Nycomed Pharma, Oslo), and centrifuged at 500 g for 35 minutes per the manufacturer's instructions. The top band at the sample/medium interface contains monocytes. The monocytes are carefully removed with a glass pipette, and reconstituted to the original volume (5 ml). The cells are washed with PBS plus 10% fetal calf serum, and centrifuged at 400 g for 10 minutes. The washing step is repeated three times before the cells are counted. Cells are resuspended at 1×10^7 cells/ml in RPMI-1640+10% fetal calf serum (FCS). The monocytes are cultured for two days at 37° C. in a humidified atmosphere of 5% CO2.
# (§2) On day 2, the cells are counted, spun down, and reconstituted to 1×10^7 cells/ml in Gey's balanced salt solution+1 mg/ml bovine serum albumin (BSA). […]
# [2] = system: SDF-1α induced human monocyte migration; assay: Human monocyte migration, SDF-1α induced; format: cell-based; conditions: Table 4(c); 100 μM peptide; n.s. = no statistically significant inhibition
# Procedure: as §1, §2
sequence,measurement,setting,value
EICADPKQKWVQ [Peptide 3],inhibition of monocyte migration induced with each of the four chemokines,[1],> 95%
same,"Extent of inhibition of human monocyte migration at 100 μM, SDF-1α",[2],108%
